In patent publication US10377717B2, “Farnesoid X receptor agonists and uses thereof” (Metacrine, Inc., priority 2015, dated 2019):

How the values were obtained:
[1] = biological target: T1, hFXR (Homo sapiens (Human), UniProt Q96RI1); assay: In Vitro FXR Assay (TK), luciferase reporter in transfected CV-1 cells; type: cell-based; settings: TK-ECRE-luc reporter, hFXR/hRXR, 18 hrs, maximum efficacy <25% of Fexaramine control classified as '+'
Procedure, shortened: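 CV-1 cells in DMEM with 10% charcoal-stripped FBS were co-transfected with hFXR, hRXR, TK-ECRE-luc reporter and pCMX-YFP plasmids. After 18 h, compounds serially diluted in DMSO were added for a further 18 h, then cells were lysed and luminescence read.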

[2] = biological target: T1, hFXR; assay: In Vitro FXR Assay (PGL3), luciferase reporter in transfected CV-1 cells; type: cell-based; settings: PGL3-ECRE*6-luc reporter, hFXR/hRXR, 18 hrs incubation
Protocol: CV-1 cells were seeded at a density of 2,000,000 cells in a T175 flask with DMEM+10% charcoal double-stripped FBS and incubated at 37° C. in a 5% CO2 for 18 h (O/N).
After 18 h of incubation, the medium in the T175 flask was changed with fresh DMEM+10% charcoal super-stripped serum.
To prepare the transfection reaction mixture, the transfection reagent (X-tremeGENE HP from Roche, Cat #06 366 236 001) was added in to a 1.5 mL microcentrifuge tube labelled “A” at a ratio of 1:3 (DNA in μg: transfection reagent in μL). OptiMEM medium (Life Technologies, Cat #31985-062) was added accordingly to provide a total volume of 1 mL. The transfection reaction mixture was then briefly vortexed and incubated at room temperature for 5 minutes.
In a separate 1.5 mL microcentrifuge tube labelled “B”, 100 μL OptiMEM and plasmids XPD90Gal pCMXhFXRfl, pCMXhRXRfl+PGL3-ECRE*6-luc+CMX-YFP in the ratio 2 μg: 2 μg:18 μg:3 μg were added. This microcentrifuge tube “B” was then briefly vortexed and incubated at room temperature for 5 minutes.
The total volume in tube labelled “A” was then transferred in to tube labelled “B.” The mixture was then briefly vortexed and the transfection:DNA complex was then incubated for about 15-20 minutes at room temperature.
Following incubation, the transfection reagent/DNA mixture complex was then added to cells in the T175 flask and the cells were incubated at […] (O/N) at 37° C. in 5% CO2.
In a 96 well plate, a half logarithmic serial dilution was prepared. OptiMEM was used as the diluent. Using any of one of the compounds described herein, a compound stock solution of 10 mM was prepared. An initial 1:100 dilution was made into the first well for a final concentration of 100 μM. The final concentrations in the 96-well plate was prepared by using a multichannel pipette to transfer 5 μL of the diluted compound to 384-well plate in quadruplicate.
Cells in T175 flask were trypsinized and cells were resuspending in 40 mL phenol red free DMEM+10% charcoal super-stripped FBS. Typically, one T175 flask was sufficient to seed two 384 well plates. CV-1 cells were seeded at 45 μL cell suspension/well using a multichannel pipet or a 384 multidrop dispenser. The cells were then incubated for 18 hrs, overnight.
After removing the plates from the incubator, the medium was flicked out of plate and 384 well plate was turned upside down onto paper towel. The remaining medium was gently tapped out. 15 μL lysis buffer was then added to each well using a multichannel pipet or a 384 well multi-drop dispenser. After incubation for 10 minutes at room temperature on shaker, 30 μL Luciferase buffer was added to each well. Luminescence counts were taken immediately using the Perkin Elmer Envision.
The ability of the compounds disclosed herein to […] FXR activity was quantified and the respective EC50 value was determined. Fex=fexaramine.

T1 sequence (Q96RI1 whole entry): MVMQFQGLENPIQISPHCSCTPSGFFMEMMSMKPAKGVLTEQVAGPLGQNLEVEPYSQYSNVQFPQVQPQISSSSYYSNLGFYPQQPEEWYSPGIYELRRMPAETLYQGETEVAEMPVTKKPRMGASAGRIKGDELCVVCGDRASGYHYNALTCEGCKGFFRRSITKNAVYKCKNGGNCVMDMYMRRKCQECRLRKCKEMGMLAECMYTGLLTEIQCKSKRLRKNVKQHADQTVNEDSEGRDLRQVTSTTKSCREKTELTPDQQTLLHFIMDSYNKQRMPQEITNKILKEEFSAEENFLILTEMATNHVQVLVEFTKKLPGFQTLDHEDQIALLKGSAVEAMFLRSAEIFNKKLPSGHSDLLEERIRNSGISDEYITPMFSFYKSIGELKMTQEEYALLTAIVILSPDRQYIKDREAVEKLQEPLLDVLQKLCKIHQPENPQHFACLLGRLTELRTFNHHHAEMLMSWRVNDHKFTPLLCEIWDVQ
T1 sequence (P19793 whole entry partner): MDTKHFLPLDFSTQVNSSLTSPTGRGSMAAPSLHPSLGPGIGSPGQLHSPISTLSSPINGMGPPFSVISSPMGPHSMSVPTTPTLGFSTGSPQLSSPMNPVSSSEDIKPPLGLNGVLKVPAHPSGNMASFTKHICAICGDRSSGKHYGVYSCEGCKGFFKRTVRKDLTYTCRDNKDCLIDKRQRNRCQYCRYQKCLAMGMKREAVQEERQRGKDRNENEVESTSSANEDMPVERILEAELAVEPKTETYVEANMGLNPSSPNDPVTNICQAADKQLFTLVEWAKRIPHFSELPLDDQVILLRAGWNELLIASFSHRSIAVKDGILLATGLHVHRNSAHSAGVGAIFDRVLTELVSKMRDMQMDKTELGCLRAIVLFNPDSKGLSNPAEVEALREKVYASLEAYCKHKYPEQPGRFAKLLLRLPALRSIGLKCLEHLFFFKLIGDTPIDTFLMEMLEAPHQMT

Row | SMILES | EC50 [1] [µM] | Cmpd/Fex (ratio of the EC50 for the test compound relative to the EC50 of the Fexaramine control) [2]
1 | COC(=O)/C=C/c1cccc(N(Cc2ccc(-c3ccc(N(C)C)cc3)cc2)C(=O)C2CCCCC2)n1 [Compound 2, (E)-Methyl 3-(6-(N-((4′-(dimethylamino)-[1,1′-biphenyl]-4-yl)methyl)cyclohexanecarboxamido)pyridin-2-yl)acrylate] | ≥ 10 | ++ (‘++’ means Cmpd/Fex > 10 & < 100)
2 | COC(=O)/C=C/c1ccnc(N(Cc2ccc(-c3ccc(N(C)C)nc3)cc2)C(=O)C2CCOCC2)c1 [Compound 6, (E)-Methyl 3-(2-(N-(4-(6-(dimethylamino)pyridin-3-yl)benzyl)tetrahydro-2H-pyran-4-carboxamido)pyridin-4-yl)acrylate] | 1 to 10 | + (‘+’ means Cmpd/Fex > 100)
3 | COC(=O)/C=C/c1ccnc(N(Cc2ccc(-c3ccc(N(C)C)nc3)cc2)C(=O)[C@H]2CC[C@H](O)CC2)c1 [Compound 7, (E)-Methyl 3-(2-(trans-N-(4-(6-(dimethylamino)pyridin-3-yl)benzyl)-4-hydroxycyclohexanecarboxamido)pyridin-4-yl)acrylate] | 1 to 10 | + (‘+’ means Cmpd/Fex > 100)
4 | COC(=O)c1ccc2c(N(C[C@H]3CC[C@H](c4ccc(OC)c(C)c4)CC3)C(=O)CC(C)(C)C)nccc2c1 [Compound 96, Methyl 1-(N-((trans-4-(4-methoxy-3-methylphenyl)cyclohexyl)methyl)-3,3-dimethylbutanamido)isoquinoline-6-carboxylate] | ≤ 1 | –
5 | COC(=O)c1ccc2c(N(CC3CCN(c4ccc(OC)c(C)c4)CC3)C(=O)CC(C)(C)C)nccc2c1 [Compound 98, Methyl 1-(N-((1-(4-methoxy-3-methylphenyl)piperidin-4-yl)methyl)-3,3-dimethylbutanamido)isoquinoline-6-carboxylate] | 1 to 10 | –
6 | COC(=O)c1ccc2c(N(C[C@H]3CC[C@H](c4ccc(OC)c(C)c4)CC3)C(=O)[C@H]3CC[C@H](O)CC3)nccc2c1 [Compound 99, Methyl 1-(trans-4-hydroxy-N-((trans-4-(4-methoxy-3-methylphenyl)cyclohexyl)methyl)cyclohexanecarboxamido) isoquinoline-6-carboxylate] | ≤ 1 | –
7 | COc1ccc(-c2ccc(CN(C(=O)CC(C)(C)C)c3nccc4cc(C(=O)O)ccc34)cc2)cc1C [Compound 101, 1-(N-((4′-methoxy-3′-methyl-[1,1′-biphenyl]-4-yl)methyl)-3,3-dimethylbutanamido) isoquinoline-6-carboxylic acid] | ≥ 10 | –
8 | COc1ccc(-c2ccc(CN(C(=O)CC(C)(C)C)c3nccc4cc(CCC(=O)O)ccc34)cc2)cc1C [Compound 104, 3-(1-(N-((4′-Methoxy-3′-methyl-[1,1′-biphenyl]-4-yl)methyl)-3,3-dimethylbutanamido)isoquinolin-6-yl)propanoic Acid] | 1 to 10 | –

The next lines start with the values.

Row | EC50 [1] [µM] | Cmpd/Fex (ratio of the EC50 for the test compound relative to the EC50 of the Fexaramine control) [2] | SMILES
9 | ≤ 1 | +++ (‘+++’ means Cmpd/Fex < 10) | COC(=O)/C=C/c1ccnc(N(Cc2ccc(-c3ccc(N(C)C)cc3)cc2)C(=O)C2CCCCC2)c1 [Compound 1, (E)-Methyl 3-(2-(N-((4′-(dimethylamino)-[1,1′-biphenyl]-4-yl)methyl)cyclohexanecarboxamido)pyridin-4-yl)acrylate]
10 | 1 to 10 | +++ (‘+++’ means Cmpd/Fex < 10) | COC(=O)/C=C/c1cc(N(Cc2ccc(-c3ccc(N(C)C)cc3)cc2)C(=O)C2CCCCC2)ccn1 [Compound 3, (E)-Methyl 3-(4-(N-((4′-(dimethylamino)-[1,1′-biphenyl]-4-yl)methyl)cyclohexanecarboxamido)pyridin-2-yl)acrylate]
11 | 1 to 10 | +++ (‘+++’ means Cmpd/Fex < 10) | COC(=O)/C=C/c1ccnc(N(Cc2ccc(-c3ccc(N(C)C)cc3)cc2)C(=O)C2CCOCC2)c1 [Compound 4, (E)-Methyl 3-(2-(N-((4′-(dimethylamino)-[1,1′-biphenyl]-4-yl)methyl)tetrahydro-2H-pyran-4-carboxamido)pyridin-4-yl)acrylate]
12 | 1 to 10 | ++ (‘++’ means Cmpd/Fex > 10 & < 100) | COC(=O)c1ccc2c(N(Cc3ccc(-c4ccc(N(C)C)cc4)cc3)C(=O)C3CCCCC3)cccc2c1 [Compound 8, Methyl 5-(N-((4′-(dimethylamino)-[1,1′-biphenyl]-4-yl)methyl)cyclohexanecarboxamido)-2-naphthoate]
13 | ≥ 10 | ++ (‘++’ means Cmpd/Fex > 10 & < 100) | CN(C)c1ccc(-c2ccc(CN(C(=O)C3CCCCC3)c3cccc4ccccc34)cc2)cc1 [Compound 9, N′-((4′-(Dimethylamino)-[1,1′-biphenyl]-4-yl)methyl)-N-(naphthalen-1-yl)cyclohexanecarboxamide]
14 | 1 to 10 | – | COC(=O)c1ccc2c(N(C[C@H]3CC[C@H](c4ccc(Cl)cc4)CC3)C(=O)CC(C)(C)C)nccc2c1 [Compound 95, Methyl 1-(N-((trans-4-(4-chlorophenyl)cyclohexyl)methyl)-3,3-dimethylbutanamido)isoquinoline-6-carboxylate]
15 | 1 to 10 | – | COc1ccc([C@H]2CC[C@H](CN(C(=O)CC(C)(C)C)c3nccc4cc(C(=O)O)ccc34)CC2)cc1C [Compound 100, 1-(N-((trans-4-(4-Methoxy-3-methylphenyl)cyclohexyl)methyl)-3,3-dimethylbutanamido)isoquinoline-6-carboxylic Acid]
16 | 1 to 10 | – | COC(=O)/C=C/c1ccc2c(N(Cc3ccc(-c4ccc(OC)c(C)c4)cc3)C(=O)CC(C)(C)C)nccc2c1 [Compound 102, (E)-Methyl 3-(1-(N-((4′-methoxy-3′-methyl-[1,1′-biphenyl]-4-yl)methyl)-3,3-dimethylbutanamido)isoquinolin-6-yl)acrylate]
17 | 1 to 10 | – | COc1ccc(-c2ccc(CN(C(=O)CC(C)(C)C)c3nccc4cc(/C=C/C(=O)O)ccc34)cc2)cc1C [Compound 103, (E)-3-(1-(N-((4′-Methoxy-3′-methyl-[1,1′-biphenyl]-4-yl)methyl)-3,3-dimethylbutanamido)isoquinolin-6-yl)acrylic Acid]
